This is an account of results in patent US20130004477A1, “Methods for Treating Inflammation and Oxidative Stress Related Diseases” (priority 2009, published 2013).

The structures appear in SMILES notation. Like-named read-outs stand apart in the source and are kept apart here.

One data set relates to CF patients. The note with it: high doses; cited from earlier work.
A further data set has as its system healthy volunteers. The note with it: Phase 1 single-dose; cited from earlier work.
The conditions of data set [1]: non-enzymatic reaction; cited from earlier work.
The next data set has as its system CF mice. As to the method:
Mouse pups, weaned at day ˜28, had access to drinking water and solid mouse food. […] All pictures were taken at the same magnification (20× objective). […] In panels C and F, the green, yellow and black arrows point to a villus, a goblet cell and a mucus plug, respectively.
The body length (A) and weight (B) (mean±s.e.m.) of CF and heterozygous mice were determined 30, 60, and 90 days after weaning
FIGS. 7B-G, show standard Alcian Blue-stained (5 μm-thick) sections of large (FIG. 7B-D) and small (FIG. 7E-G) intestines (Alcian Blue specifically stains mucin; http://www.protocol-online.org).
Mouse pups, weaned at day ˜28, had access to drinking water and solid mouse food. […] In FIGS. 7C and 7F, the green, yellow and black arrows point to a villus, a goblet cell and a mucus plug, respectively.
The body length (A) and weight (B) (mean±s.e.m.) of CF and heterozygous mice were determined 30, 60, and 90 days after.

For a further data set, the system named is Calu-3 cells. As to the kind of experiment: Cell viability assay: H2O2 cytotoxicity in Calu-3 cells. The format is cell-based, human. To be noted: SCN^− alone, GO 20 mU/ml. On the procedure:
(§1) (the number of independent trials is indicated in parentheses).
(§2) Four types of cell, Calu-3, Min6 (58), Neuro-2A, and HAEC (Invitrogen Inc.) were plated in 48-well culture plates (3.5×10^4 to 2×10^5 per well). Twenty-four to forty-eight hours later, cells were washed with Earl's balanced salt solution (EBSS) before subsequent studies. EBSS contained: NaCl (116 mM), glucose (5.5 mM), KCl (5.4 mM), CaCl2 (1.8 mM), MgSO4 (2.2 mM), NaH2PO4 (1 mM), and NaHCO3 (26 mM); pH 7.0. […] LPO (1 U/ml) and NaSCN (100 or 400 μM) were added to protect cells from injuries caused by H2O2. For the MPO studies, cells were first incubated for one hour in EBSS containing MPO (1 U/ml). The MPO reaction was initiated by adding 10 mU/ml GO to generate H2O2, and cells were maintained in a 37° C. incubator (5% CO2) for three additional hours. […] After incubation, cells were trypsinized, pelleted, and resuspended in a phosphate buffer solution (PBS), which contains NaCl (137 mM), KCl (2.7 mM), Na2HPO4 (4.3 mM) and KH2PO4 (1.4 mM); pH 7.3. Non-viable cells were identified by staining with 0.2% Trypan blue (Invitrogen, Inc.). Both stained and unstained cells were counted with a hemocytometer in double blind experiments.

The target of another data set is MPO (Homo sapiens, UniProt P05164). The note with it: 1 U/ml MPO, 100 mM Cl^−, 5 minutes. As to the method:
Reaction mixtures contained MPO (1 U/ml), NaCl (100 mM), NaSCN (0-400 μM), and sodium phosphate (100 mM, pH 7.0). Reactions were initiated by adding 50 μM H2O2 to the mixture, and stopped 5 minutes later by adding 1 μM catalase to decompose remaining H2O2 to H2O and O2. Blank reactions contained no H2O2. The concentrations of OCl^− and OSCN^−were determined using the taurine chloramine assay. OCl^− and OSCN^− react with taurine to form taurine chloramine. The latter oxidizes yellow 5-thio-2-nitrobenzoic acid (ε412=14,100 M^−1 cm^−1) to colorless 5,5′-dithiobis-2-nitrobenzoic acid. The drop in absorbance at 412 nm (after subtracting the blank) reflects the total concentration of OCl^− plus OSCN^− produced. […] Methionine was added immediately after the addition of catalase but 5 minutes before the taurine chloramine assay. This five minute interval allowed methionine to reduce OCl^−. Unless specified otherwise, all reagents were purchased from Sigma-Aldrich.

For data set [2], the system named is human aortic endothelial cells (HAEC). The note with it: 400 μM SCN^−; GO 5 mU/ml, MPO 1 U/ml. On the procedure: as §1, §2
In another data set the test system is Min6 cells. To be noted: 400 μM SCN^−; GO 10 mU/ml, MPO 1 U/ml. On the procedure: as §1, §2
In the next data set the test system is Neuro-2A cells. The note with it: GO 10 mU/ml, MPO 1 U/ml. As to the method: as §1, §2
The next data set addresses T1, CFTR (Homo sapiens, UniProt P13569, G551D).
T1 construct: endogenous in cells; host or cells: CF patients (nasal epithelium, sweat glands, lungs)
The note with it: CF patients with at least one copy of the G551D mutation; Phase II; cited from earlier work.

Where [3] appears, read: 1 mM thiocyanate in drinking water, 30, 60, 90 days after weaning.
Where [4] appears, read: single dose of thiocyanate (1 mM).

Chain of MPO (P05164 49-745, species assumed): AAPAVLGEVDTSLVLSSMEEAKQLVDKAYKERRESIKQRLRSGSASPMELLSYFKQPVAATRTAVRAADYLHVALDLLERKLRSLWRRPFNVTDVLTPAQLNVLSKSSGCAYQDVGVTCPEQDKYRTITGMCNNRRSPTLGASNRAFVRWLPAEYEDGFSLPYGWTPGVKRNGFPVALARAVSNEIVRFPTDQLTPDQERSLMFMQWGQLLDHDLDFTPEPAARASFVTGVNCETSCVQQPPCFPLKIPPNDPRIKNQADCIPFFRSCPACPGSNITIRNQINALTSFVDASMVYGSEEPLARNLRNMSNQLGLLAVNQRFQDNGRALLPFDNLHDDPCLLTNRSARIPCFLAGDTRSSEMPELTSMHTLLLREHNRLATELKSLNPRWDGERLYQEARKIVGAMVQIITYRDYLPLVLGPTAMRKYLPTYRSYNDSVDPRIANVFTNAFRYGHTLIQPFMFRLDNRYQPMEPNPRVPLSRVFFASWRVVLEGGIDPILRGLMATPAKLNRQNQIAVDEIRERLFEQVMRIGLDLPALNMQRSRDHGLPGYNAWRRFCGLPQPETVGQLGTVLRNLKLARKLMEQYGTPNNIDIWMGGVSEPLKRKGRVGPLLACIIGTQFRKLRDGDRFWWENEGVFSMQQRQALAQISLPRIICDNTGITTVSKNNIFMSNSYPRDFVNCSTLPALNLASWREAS
T1 sequence (P13569 whole entry G551D): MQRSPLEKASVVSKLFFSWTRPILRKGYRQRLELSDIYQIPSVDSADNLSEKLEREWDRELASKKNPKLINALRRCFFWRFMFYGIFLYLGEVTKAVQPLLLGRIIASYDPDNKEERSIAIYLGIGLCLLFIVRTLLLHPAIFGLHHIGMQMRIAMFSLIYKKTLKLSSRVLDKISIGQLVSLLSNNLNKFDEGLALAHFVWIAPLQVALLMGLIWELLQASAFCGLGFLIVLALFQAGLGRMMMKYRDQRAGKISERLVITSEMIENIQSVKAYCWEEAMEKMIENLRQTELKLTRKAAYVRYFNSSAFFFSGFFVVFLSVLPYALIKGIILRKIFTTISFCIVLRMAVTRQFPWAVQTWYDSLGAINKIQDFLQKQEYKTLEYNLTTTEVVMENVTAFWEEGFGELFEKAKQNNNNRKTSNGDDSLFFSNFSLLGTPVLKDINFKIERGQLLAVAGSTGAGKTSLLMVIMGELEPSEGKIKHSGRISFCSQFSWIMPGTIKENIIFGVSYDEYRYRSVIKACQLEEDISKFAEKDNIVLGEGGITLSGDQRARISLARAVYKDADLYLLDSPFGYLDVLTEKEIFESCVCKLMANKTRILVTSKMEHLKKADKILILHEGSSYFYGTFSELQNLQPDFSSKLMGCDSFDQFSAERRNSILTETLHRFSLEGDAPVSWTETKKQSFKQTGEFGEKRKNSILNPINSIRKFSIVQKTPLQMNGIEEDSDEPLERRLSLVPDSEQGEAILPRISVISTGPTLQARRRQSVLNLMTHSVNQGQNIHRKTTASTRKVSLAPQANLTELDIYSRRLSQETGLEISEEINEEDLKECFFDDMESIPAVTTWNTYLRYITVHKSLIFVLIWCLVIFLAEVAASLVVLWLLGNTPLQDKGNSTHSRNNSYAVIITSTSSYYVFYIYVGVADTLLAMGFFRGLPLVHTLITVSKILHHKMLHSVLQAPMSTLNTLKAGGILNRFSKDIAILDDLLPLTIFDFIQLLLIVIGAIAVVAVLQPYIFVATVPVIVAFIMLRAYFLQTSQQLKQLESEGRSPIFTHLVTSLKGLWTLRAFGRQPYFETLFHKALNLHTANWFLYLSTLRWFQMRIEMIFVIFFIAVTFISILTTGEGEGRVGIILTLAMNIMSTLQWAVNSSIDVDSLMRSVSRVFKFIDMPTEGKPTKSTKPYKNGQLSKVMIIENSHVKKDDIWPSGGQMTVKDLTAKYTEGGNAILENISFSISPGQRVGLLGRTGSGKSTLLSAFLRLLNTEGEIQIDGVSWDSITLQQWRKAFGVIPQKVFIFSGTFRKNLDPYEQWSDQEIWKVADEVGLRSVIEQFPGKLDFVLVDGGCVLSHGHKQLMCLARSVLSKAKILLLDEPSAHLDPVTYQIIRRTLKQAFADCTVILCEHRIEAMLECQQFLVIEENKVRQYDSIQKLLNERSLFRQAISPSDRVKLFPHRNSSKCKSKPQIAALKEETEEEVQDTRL

In the case of `CC(C)Cc1ccc(C(C)C(=O)O)cc1` (stereo not shown) [ibuprofen], the CF disease progression result in the data set on CF patients is listed as “slow disease progression”.
Take `O=C(O)c1cccc(-c2noc(-c3ccccc3F)n2)c1` [Ataluren]: the “safety, oral availability and tolerability” value in the data set on healthy volunteers is “safe, orally available and well tolerated”.
Consider `N#CS` [SCN^−, thiocyanate], for which the “second-order rate constant of oxidation by OCl^− to OSCN^−” value in data set [1] was 2.3e+07 M⁻¹ s⁻¹. Also, the “CF mice survived beyond 90 days” value in the data set with CF mice (1 mM thiocyanate in drinking water (mothers before weaning, pups after weaning)) is listed as 10 of the 15. For the same molecule, the “body length of CF mice” value with CF mice (setting [3]) is listed as “normalizes”. The “body weight of CF mice” value with CF mice (setting [3]) is reported as “normalizes”. In addition, the “survival of CF mice” value in the data set with CF mice (oral thiocyanate, 1 mM in drinking water) is “prolongs the survival”. Moreover, the “protection against H2O2 cell injury” value in the data set on Calu-3 cells (100 μM) is listed as “Neither SCN^− (100 or 400 μM), nor LPO (1 U/ml) alone provided any significant protection”; in the data set with Calu-3 cells (400 μM), “Neither SCN^− (100 or 400 μM), nor LPO (1 U/ml) alone provided any significant protection”. For the same molecule, the “protection for CF piglets” value with CF piglets (given to pig mothers during pregnancy and to piglets after birth, up to 20 mg/kg daily, with or without iodine) was “improved protection”. Moreover, in the data set with CF piglets (setting [4]), the “effect on meconium in CF piglets” value was “loosening meconium”. Further, in the data set on CF piglets (setting [4]), the “survival of CF piglets” value is “does not survive them”. Further, the “inhibition of MPO-catalyzed production of OCl^−” value on MPO (10 μM SCN^−) was “inhibited only slightly, if at all”; against MPO (50 μM SCN^−) it was “partially inhibited”; on MPO (100-400 μM SCN^−) it was “inhibited almost completely”. The “production of OSCN^− and OCl^− with increasing SCN^− concentration” value on MPO was “boosted the production of OSCN^− but depressed that of OCl^−”. Also, the “protection against MPO activity” value (in [2]; in the data set on Min6 cells; with Neuro-2A cells (100 μM SCN^−); in the data set with Neuro-2A cells (400 μM SCN^−)) was “virtually fully protected” each time.
Take `CC(C)(C)c1cc(C(C)(C)C)c(NC(=O)c2c[nH]c3ccccc3c2=O)cc1O` [VX-770]: at CFTR, the “biological measures of CFTR function (nasal potential difference and sweat chloride)” value is “improvements”; the “clinical measures of pulmonary health (FEV1)” value was “improvements”.
